Here are results for 33 molecules from paper PMC12369603, “Functional characterization of antennae-enriched chemosensory protein 4 in emerald ash borer, Agrilus planipennis” (PeerJ, 2025).

The target of the assay is recombinant AplaCSP4 (Agrilus planipennis chemosensory protein 4) (Agrilus planipennis, UniProt A0A1W4XLL0). The assay is described as follows: biochemical. The following applies: for Kd: read-out: K D ±SE (dissociation constant); for binding to AplaCSP4 (in words): discussion of fluorescence competitive binding results; for Competitive binding capability(%) / activity at 2 µM / activity at 4 µM / activity at 6 µM / activity at 8 µM / activity at 10 µM / activity at 12 µM: three replicate columns, 100 at 0 μM. It counts as binding. How it is done:
Specifically, the binding affinities of AplaCSP4 for 43 volatile organic compounds were determined using F-380 fluorescence spectrophotometer (Tianjin, China) with a 10 nm slits and a 1 cm light path. These 43 substances are common green leaf volatiles, among which 16 volatiles originate from the ash tree. […]

[1] abbreviates: AplaCSP4 and 1-NPN each 2 µM, 50 mM Tris–HCl pH 7.4, KD = IC50/(1+[1-NPN]/K1-NPN), mean of three experiments.
Setting [2] is: AplaCSP4 and 1-NPN each 2 µM, ligands with minimal binding single experiment, read-out: K D ±SE, “–” = no binding (IC50 >16 μM, KD not calculated).
[3] abbreviates: ligand concentration 2 μM, 2 µM.
[4] abbreviates: ligand concentration 4 μM, 4 µM.
Setting [5] is: ligand concentration 6 μM, 6 µM.
The mark [6] stands for this setting: ligand concentration 8 μM, 8 µM.
The mark [7] stands for this setting: ligand concentration 10 μM, 10 µM.
Where [8] appears, read: ligand concentration 12 μM, 12 µM.
The mark [9] stands for this setting: pH 7.4, read-out: Competitive binding capability(%), ligand concentration 2 μM.
[10] abbreviates: pH 7.4, read-out: Competitive binding capability(%), ligand concentration 4 μM.
[11] abbreviates: pH 7.4, read-out: Competitive binding capability(%), ligand concentration 6 μM.
[12] abbreviates: pH 7.4, read-out: Competitive binding capability(%), ligand concentration 8 μM.
[13] abbreviates: pH 7.4, read-out: Competitive binding capability(%), ligand concentration 10 μM.
The mark [14] stands for this setting: pH 7.4, read-out: Competitive binding capability(%), ligand concentration 12 μM.
Setting [15] is: pH 7.4, ligand concentration 2 μM, read-out: Competitive binding capability(%).
[16] abbreviates: pH 7.4, ligand concentration 4 μM, read-out: Competitive binding capability(%).
The mark [17] stands for this setting: pH 7.4, ligand concentration 6 μM, read-out: Competitive binding capability(%).
Setting [18] is: pH 7.4, ligand concentration 8 μM, read-out: Competitive binding capability(%).
[19] abbreviates: pH 7.4, ligand concentration 10 μM, read-out: Competitive binding capability(%).
Setting [20] is: pH 7.4, ligand concentration 12 μM, read-out: Competitive binding capability(%).

SMILES strings stand for the structures. Where “and” joins values, the source holds several entries; their conditions need not be identical. Equal entries are not always repeated. Where two headings read alike, the source gives them in different places. Some results are limits rather than exact numbers.

recombinant AplaCSP4 (Agrilus planipennis chemosensory protein 4), sequence (A0A1W4XLL0 entry or part of it): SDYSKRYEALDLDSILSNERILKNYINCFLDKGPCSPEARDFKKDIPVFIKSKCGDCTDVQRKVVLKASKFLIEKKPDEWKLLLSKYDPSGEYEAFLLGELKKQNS

Usually IC50 stands for the concentration at which inhibition is half-maximal. For the molecule `CC(C)=CCCC(C)=CC=O` (mixture of isomers) [Citral], the IC50 is above 16 µM.
On to `CC(=O)O[C@@H]1C[C@H]2CC[C@]1(C)C2(C)C` (racemic) [Isobornyl acetate], for which the IC50 is above 16 µM.
Turning to `C=C(C)C1CC=C(C)CC1` (single isomer, unassigned; (+)) [(+)-Limonene], the “binding to AplaCSP4 (in words)” value is recorded as “binding capabilities”. Besides, the Kd under setting [1] was 11.3 ± 0.69 µM. Moreover, the “Competitive binding capability(%)” value (ligand concentration 2 μM) is 97.2535% and 97.4709% and 95.8953%. Also, for the setting “ligand concentration 4 μM”, the “Competitive binding capability(%)” value is 90.8935% and 90.3604% and 88.2267%. In addition, the “Competitive binding capability(%)” value (ligand concentration 6 μM) was 83.0381% and 84.401% and 80.748%. For the same molecule, for the setting “ligand concentration 8 μM”, the “Competitive binding capability(%)” value is 77.7418% and 78.3215% and 71.3561%. For the same molecule, under “ligand concentration 10 μM”, the “Competitive binding capability(%)” value is 70.6734% and 71.72% and 63.3296%. Besides, the “Competitive binding capability(%)” value (ligand concentration 12 μM) is 65.4243% and 64.4472% and 56.5332%.
In the case of `CC12CCC(CC1)C(C)(C)O2` [1,8-Cineole], the IC50 is above 16 µM.
As to `CCCCCCO` [1-Hexanol], the IC50 was above 16 µM.
Turning to `CCCCCCCCO` [1-Octanol], the IC50 under setting [2] is above 16 µM.
Regarding `C=CC(O)CCCCC` (stereo not shown) [1-Octen-3-ol], the IC50 was above 16 µM.
For the molecule `CCCCC(C)=O` [2-Hexanone], the IC50 was above 16 µM.
Same read-out and setting: next, `CCc1ccc(C(C)=O)cc1` [4′-Ethylacetophenone]: above 16 µM.
Take `C=C1CCC2CC1C2(C)C` (stereo not drawn) [(-)-β-Pinene]: the IC50 under setting [2] is above 16 µM.
For the molecule `C=C(C)[C@@H]1CC=C(C)C(=O)C1` [(R)-(-)-Carvone], the IC50 is above 16 µM.
Still for that read-out and setting: next, `O=Cc1ccccc1` [Benzaldehyde]: above 16 µM.
Consider `CCCCCCCCCC=O` [Decanal], for which the IC50 under setting [2] was above 16 µM.
In the case of `CCCCCCCCCC` [Decane], the Kd stood at 2.87 ± 0.44 µM. The “Competitive binding capability(%)” value under setting [3] was 60.8138% and 70.0208%. Besides, the “Competitive binding capability(%)” value under setting [4] is 45.6655% and 49.8433%. In addition, under setting [5], the “Competitive binding capability(%)” value was 42.3979% and 46.6766%. The “Competitive binding capability(%)” value under setting [6] was 41.2683% and 43.4013%. Moreover, the “Competitive binding capability(%)” value under setting [7] was 39.2004% and 42.0377%. In addition, the “Competitive binding capability(%)” value under setting [8] is 38.5773% and 39.0548%. The activity at 2 µM under setting [9] came to 57.1%. For the same molecule, the activity at 4 µM under setting [10] was 45.8%. Also, the activity at 6 µM under setting [11] turned out to be 42.4%. The activity at 8 µM under setting [12] was determined as 40.4%. Besides, under setting [13], the activity at 10 µM is 39.9%. For the same molecule, the activity at 12 µM under setting [14] stood at 38.2%.
As for `CCCCCCCCCCCC` [Dodecane], the “binding to AplaCSP4 (in words)” value was “binding capabilities” and the Kd was 1.93 ± 0.09 µM. Further, the “Competitive binding capability(%)” value under setting [3] was 62.371% and 59.0946%. Also, the “Competitive binding capability(%)” value under setting [4] was 40.5144% and 36.3519%. For the same molecule, under setting [5], the “Competitive binding capability(%)” value is 30.0968% and 29.949%. Moreover, under setting [6], the “Competitive binding capability(%)” value was 26.7121% and 28.4784%. Further, the “Competitive binding capability(%)” value under setting [7] was 26.2641% and 27.4122%. Besides, the “Competitive binding capability(%)” value under setting [8] was 25.5826% and 26.3545%. Further, the activity at 2 µM under setting [9] was 63.1%. Moreover, under setting [10], the activity at 4 µM was 37.5%. Further, the activity at 6 µM under setting [11] amounted to 29.7%. For the same molecule, under setting [12], the activity at 8 µM came out at 27.4%. The activity at 10 µM under setting [13] worked out at 26.7%. Further, under setting [14], the activity at 12 µM amounted to 25.8%.
As to `C=CCc1ccc(O)c(OC)c1` [Eugenol], the IC50 was above 16 µM.
The same measure, in the same setting: then `CCCCCC=O` [Hexanal], with above 16 µM.
Turning to `CCCCCCOC(C)=O` [Hexyl acetate], under setting [2], the IC50 was above 16 µM.
Consider `CCCCCCOC(=O)CCC` [Hexyl butyrate], for which the Kd stood at 11.5 ± 0.42 µM. Also, under setting [3], the “Competitive binding capability(%)” value is 93.4207% and 91.053%. Moreover, under setting [4], the “Competitive binding capability(%)” value was 84.76% and 83.3555%. In addition, the “Competitive binding capability(%)” value under setting [5] is 77.5021% and 75.6266%. Further, under setting [6], the “Competitive binding capability(%)” value is 71.3681% and 69.2316%. Besides, the “Competitive binding capability(%)” value under setting [7] is 65.618% and 62.7841%. Moreover, under setting [8], the “Competitive binding capability(%)” value is 61.0388% and 57.6483%. Besides, under setting [15], the activity at 2 µM is 93.1%. The activity at 4 µM under setting [16] amounted to 85.4%. Moreover, the activity at 6 µM under setting [17] amounted to 78.8%. For the same molecule, the activity at 8 µM under setting [18] is 72.2%. Moreover, the activity at 10 µM under setting [19] is 65.8%. In addition, under setting [20], the activity at 12 µM amounted to 61.7%.
Take `C=CC(C)(O)CCC=C(C)C` (stereo not shown) [Linalool]: the IC50 is above 16 µM.
On the same count and under the same terms, then `COC(=O)c1ccccc1` [Methyl benzoate], with above 16 µM; and `COC(=O)c1ccccc1O` [Methyl salicylate], with above 16 µM.
As to `C=CC(=C)CCC=C(C)C` [Myrcene], the “binding to AplaCSP4 (in words)” value is “binding capabilities” and the Kd came to 9.9 ± 0.34 µM. Moreover, the “Competitive binding capability(%)” value under setting [3] is 93.6207% and 95.326%. The “Competitive binding capability(%)” value under setting [4] is 85.4868% and 89.2675%. For the same molecule, the “Competitive binding capability(%)” value under setting [5] is 76.2875% and 80.8277%. Moreover, the “Competitive binding capability(%)” value under setting [6] was 67.6403% and 72.2022%. Also, the “Competitive binding capability(%)” value under setting [7] was 61.2276% and 66.6056%. The “Competitive binding capability(%)” value under setting [8] is 55.297% and 60.7518%. Under setting [15], the activity at 2 µM was found to be 93.4%. Further, under setting [16], the activity at 4 µM is 87%. Also, the activity at 6 µM under setting [17] was 75.3%. Further, under setting [18], the activity at 8 µM is 66.9%. Further, the activity at 10 µM under setting [19] worked out at 61.1%. Moreover, the activity at 12 µM under setting [20] came to 54.9%.
Regarding `CCCCCCCCC=O` [Nonanal], the IC50 under setting [2] was above 16 µM.
Regarding `C=CC(C)=CCC=C(C)C` [Ocimene], the “binding to AplaCSP4 (in words)” value is reported as “binding capabilities”. Besides, under setting [1], the Kd is 10.4 ± 1.11 µM. The “Competitive binding capability(%)” value (ligand concentration 2 μM) was 93.4067% and 90.0634% and 92.7212%. In addition, the “Competitive binding capability(%)” value (ligand concentration 4 μM) was 88.4911% and 81.8854% and 85.2152%. Further, the “Competitive binding capability(%)” value (ligand concentration 6 μM) is 82.5386% and 75.7215% and 76.2043%. Also, where the note is “ligand concentration 8 μM”, the “Competitive binding capability(%)” value is 75.2984% and 68.1994% and 63.8599%. In addition, the “Competitive binding capability(%)” value (ligand concentration 10 μM) was 69.6898% and 60.3453% and 57.9099%. Further, the “Competitive binding capability(%)” value (ligand concentration 12 μM) is 63.4481% and 55.0655% and 52.0519%.
Regarding `CCCCCCCC=O` [Octanal], the IC50 under setting [2] was above 16 µM.
Consider `N#CCc1ccccc1` [Phenylacetonitrile], for which the IC50 was above 16 µM.
Take `CCCCCCCCCCCCCC` [Tetradecane]: the IC50 under setting [2] is above 16 µM.
On the same count and under the same terms, then `CCCCC=O` [Valeraldehyde], with above 16 µM.
For `CC/C=C\CCO` [cis-3-Hexen-1-ol], the IC50 was above 16 µM.
`CC/C=C\CCOC(C)=O` [cis-3-Hexenyl acetate]: the IC50 under setting [2] was above 16 µM.
For the molecule `CC/C=C\CCOC(=O)c1ccccc1` [cis-3-Hexenyl benzoate], the Kd was found to be 4.29 ± 0.18 µM. Besides, under setting [3], the “Competitive binding capability(%)” value was 79.0652% and 72.7217%. Moreover, under setting [4], the “Competitive binding capability(%)” value is 62.6633% and 59.3339%. The “Competitive binding capability(%)” value under setting [5] is 52.3441% and 49.0753%. Also, under setting [6], the “Competitive binding capability(%)” value is 45.5407% and 42.369%. The “Competitive binding capability(%)” value under setting [7] was 38.572% and 36.9717%. In addition, the “Competitive binding capability(%)” value under setting [8] was 34.5851% and 32.8537%. In addition, under setting [15], the activity at 2 µM stood at 76.1%. The activity at 4 µM under setting [16] was determined as 61.8%. Besides, the activity at 6 µM under setting [17] was 51.7%. Also, the activity at 8 µM under setting [18] is 44.5%. Also, the activity at 10 µM under setting [19] was 39.2%. Besides, the activity at 12 µM under setting [20] amounted to 35%.
`CC/C=C\CCOC(=O)C(C)C` [cis-3-Hexenyl isobutyrate]: the IC50 under setting [2] is above 16 µM.
